Reference: patent US20120148501A1, “RADIOLOGICAL IMAGE ENHANCEMENT WITH TANTALUM CLUSTERS” (priority 2010, published 2012)

Tests used:
[1] = Solubility of purified cluster in saturated aqueous poly(vinyl alcohol) solution; format: physicochemical; details: saturated PVA (MW 50k-85k, hydrolyzed), stirred
Excerpt: The solubility of (Ta6Cl12)Cl2 in an aqueous solution of saturated polyvinyl alcohol) (PVA) was investigated by stirring purified (Ta6Cl12)Cl2 with a solution of saturated PVA (MW-50k-85k, hydrolyzed). […] It appeared that PVA complexes of tantalum clusters were poorly soluble in water.

[2] = Cluster concentration from saturated solutions in a variety of solvents (solubility); format: physicochemical
Experimental: Optical absorbencies at ˜330 and ˜400 nm were used to track cluster concentration in solution. An approximate molar extinction coefficient was determined by dissolving an isolated and purified cluster sample in water and measuring its absorption. […] Early in the study, the highest sample concentration was 30 mM.
Substitutional doping of divalent zinc on trivalent tantalum sites provides for a reduction in the overall cluster charge. A reduction in the overall cluster charge is also attainable by adjusting the redox chemistry of the starting mixture. Target materials include (Ta6Cl12)Cl2, (Ta6Br12)Cl2, […], (Ta6Br12)Br2, (Ta6I12)I2, (Ta6Cl11O)Cl2, (Ta6Cl11S)CI2, and (Ta5ZnCl12)Cl2. […] These compositions were targeted to elicit materials with enhanced solubility or molecular handles that could be leveraged to further enhance the solubility. […] In the table below, EtOH stands for ethyl alcohol, EG stands for ethylene glycol, PS80 stands for Polysorbate 80, DMSO stands for dimethyl sulfoxide, and EDTA stands for ethylenediaminetetraacetic acid.
The solubility of (Ta6Cl12)Cl2 in an aqueous solution of saturated polyvinyl alcohol) (PVA) was investigated by stirring purified (Ta6Cl12)Cl2 with a solution of saturated PVA (MW-50k-85k, hydrolyzed).

[3] = Experimental: An ultrapurified tantalum cluster of formula (Ta6Cl12)Cl2 (Ultra Purified Ta Ta:TaCl5=1.2) was dissolved in water at a concentration of 355 mM, and in ethylene glycol at a concentration of 592 mM. The resulting water solutions were subjected to radiography to gauge their X-ray absorption characteristics. The samples were loaded into 2 mL polypropylene screw cap tubes with a 1 cm inner diameter. These samples were imaged alongside four calibration standards: 1) aluminum step wedge, 2) polycarbonate step wedge, 3) tantalum foils from 0.0127 to 0.5 mm thick, and 4) a water dilution series containing from 0 to 100% by volume of GE Healthcare's iodinated contrast agent, Visipaque, that contains 320 mg I/mL, in the same 2 mL tubes. Images were collected on a GE Healthcare OEC 9900 Elite digital X-ray Imaging System with a Tri-mode Image Intensifier at 50 KeV with filament currents varied from 0.4 to 9.0 mA. FIG. 2 below is a characteristic image of candidate aqueous samples (first two samples from the left) from the left, marked A and B) alongside calibration samples.
FIG. 3 is imaged through 8 cm of water serving as a low X-ray energy filter and simulating an arm or leg phantom to produce clinically equivalent images. […]

| Substance | Solubility in aqueous solution of saturated poly(vinyl alcohol) [1] | Cluster concentration from saturated solution, 5% EDTA [2] [mM] | Cluster concentration from saturated solution, DMSO [2] [mM] | Cluster concentration from saturated solution, H2O [2] [mM] | Cluster concentration from saturated solution, EG [2] [mM] | Remaining soluble cluster X-ray absorption, as equivalent Visipaque calibration solution [3] [%] | Remaining soluble cluster X-ray absorption, as equivalent tantalum foil stack thickness [3] [mm] |
| --- | --- | --- | --- | --- | --- | --- | --- |
| (Ta6Cl12)Cl2 | most of the color was lost as a deep green precipitate formed | – | – | – | – | – | – |
| (Ta6Cl12)Cl2 [Ta Red, Ta:TaCl5=1.2] | – | 12 | 2 | 59 | – | – | – |
| (Ta6Cl12)Cl2 [Ultra purified Ta Red] | – | – | – | 355 | 592 | ~37.5 | ~0.0889 |
